Data from patent US7432302B2, “Composition containing polyamine transport inhibitor and use thereof” (MediQuest Therapeutics, Inc., priority 2001, dated 2008).

system: hair regrowth; assay: Animal hair growth inhibition assay; assay type: in vivo, mice; conditions: biosynthesis inhibitor alone, compound None (DFMO at 2%; Vaniqua 13.9% DFMO)

Structure (SMILES) | % HGI [%]
NCCC[C@](N)(C(=O)O)C(F)F [DFMO, α-difluoromethylornithine] | 28

same assay, conditions: compound with BHT 0.5%; 70% ethanol, pH 7.0, once a day for 18 days

Structure (SMILES) | % HGI [%]
NCCCNCCCCNCCCNC(=O)[C@@H](N)CCCCNCC1CCCCC1 [MQT 3] | 68

same assay, conditions: compound with DFMO at 2%; 70% ethanol, pH 7.0, applied once a day for 18 days

Structure (SMILES) | % HGI [%]
CCCCCCCCCCCCCCCC(=O)NCCCC[C@H](N)C(=O)NCCCNCCCCNCCCN [MQT 2] | 97
NCCCNCCCCNCCCNC(=O)[C@@H](N)CCCCNCC1CCCCC1 [MQT 3] | 93
CC(C)(C)CCNCCCC[C@H](N)C(=O)NCCCNCCCCNCCCN [MQT 4] | 63
CCCCCCCC(=O)NCCCC[C@H](N)C(=O)NCCCNCCCCNCCCN [MQT 5] | 47
CCCCCCCNCCCC[C@H](N)C(=O)NCCCNCCCCNCCCN [MQT 6] | 79

same assay, conditions: no additional biosynthesis inhibitor (None, or antizyme inducer; agmatine 2%); once a day for 18 days

Structure (SMILES) | % HGI [%]
N=C(N)NCCCCN [Agmatine, reference compound] | 30
CC(C)(C)CCNCCCC[C@H](N)C(=O)NCCCNCCCCNCCCN [MQT 4] | 66
NCCCCCCNCCCCCCNCc1ccc(CNCCCN)cc1 [MQT 7] | 94
NCCCCCCNCCCCCNCCN [MQT 8] | 53

system: L1210 leukemia cells; assay: not given; conditions: mutant L1210 cells with greatly reduced polyamine transport activity; cited from earlier work

Structure (SMILES) | increase in median survival time [%] | mice cured
NCCC[C@](N)(C(=O)O)C(F)F [DFMO, α-difluoromethylornithine] | 87 | 13 of 40

same assay, conditions: parental L1210 cell line; cited from earlier work

Structure (SMILES) | increase in median survival time [%]
NCCC[C@](N)(C(=O)O)C(F)F [DFMO, α-difluoromethylornithine] | 22

system: fiber growth; assay: not given; conditions: sheep treated systemically; cited from earlier work

Structure (SMILES) | fiber diameter increase [%] | fiber growth decline [%]
NCCC[C@](N)(C(=O)O)C(F)F [DFMO, α-difluoromethylornithine] | 14 | 10

biological target: T1, spermidine synthase (Homo sapiens, UniProt P19623); assay: not given; conditions: cited from earlier work
T1 sequence (P19623 1-302): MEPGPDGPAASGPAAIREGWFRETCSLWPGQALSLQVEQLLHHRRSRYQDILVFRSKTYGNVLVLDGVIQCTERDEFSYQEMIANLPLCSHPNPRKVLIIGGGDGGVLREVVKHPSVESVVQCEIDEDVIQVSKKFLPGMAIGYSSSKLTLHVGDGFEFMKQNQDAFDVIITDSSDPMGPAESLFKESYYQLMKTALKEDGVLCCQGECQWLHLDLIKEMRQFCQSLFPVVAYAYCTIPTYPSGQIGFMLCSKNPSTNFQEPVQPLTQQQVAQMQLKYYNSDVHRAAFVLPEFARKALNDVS

Structure (SMILES) | IC50 | Ki [µM]
C=CCCCN [5-amino-1-pentene] | respectable activity | 
CCCCN [Compound 1-butylamine, 1-butylamine] |  | 0.52

same assay, conditions: read-out: IC50; cited from earlier work

Structure (SMILES) | IC50 [µM]
CCCCCN [1-pentylamine] | 3.6
CCCCN [Compound 1-butylamine, 1-butylamine] | 3.8
NC1CCCCC1 [cyclohexylamine] | 8.1
NC1CC2CCC1C2 (stereo not drawn) [exo-2-aminonorbornane] | 5.5
C[C@H]1CC[C@H](N)CC1 [trans-4-methylcyclohexylamine] | 1.7

system: cell growth when given with DFMO; assay: EC50 determined as disclosed in Weeks et al. (cell growth when given with DFMO); assay type: cell-based; conditions: determined as in Weeks et al. Exp Cell Res. 2000

Structure (SMILES) | EC50 [µM]
CCCCCCCCCCCCCCCC(=O)NCCCC[C@H](N)C(=O)NCCCNCCCCNCCCN [MQT 2] | 0.044
NCCCNCCCCNCCCNC(=O)[C@@H](N)CCCCNCC1CCCCC1 [MQT 3] | 0.78
CC(C)(C)CCNCCCC[C@H](N)C(=O)NCCCNCCCCNCCCN [MQT 4] | 1.6
CCCCCCCC(=O)NCCCC[C@H](N)C(=O)NCCCNCCCCNCCCN [MQT 5] | 2.2
CCCCCCCNCCCC[C@H](N)C(=O)NCCCNCCCCNCCCN [MQT 6] | 0.38

system: cultured follicles; assay: not given; conditions: cited from earlier work

Structure (SMILES) | ED50, inhibition of the growth of cultured follicles [µM]
CC(/C=N/NC(=N)N)=N\NC(=N)N [MGBG, methylglycoxal bis(guanylhydrazone)] | ~5

same assay, conditions: in culture media: DFMO 500 μM; N-butyl-1,3-diaminopropane 50 μM; cited from earlier work

Structure (SMILES) | effect on the growth of cultured follicles
NCCC[C@](N)(C(=O)O)C(F)F [DFMO, α-difluoromethylornithine] | no effect

system: not given; assay: not given; conditions: rats, 10-day treatment with drug in drinking water; cited from earlier work

Structure (SMILES) | LD50
NCCCNC1CCCCC1 [APCHA, N-(3-aminopropyl)cyclohexylamine] | > 500 mg/kg
CC1CCC(N)CC1 (centres unmarked) [Compound 4MCHA, 4-methylcyclohexylamine] | more than 250 mg/kg

biological target: T2, ornithine decarboxylase (ODC) (Homo sapiens, UniProt P11926); assay: not given; conditions: reversible / cofactor-interaction ODC inhibitors, literature; cited from earlier work
T2 sequence (P11926 1-461): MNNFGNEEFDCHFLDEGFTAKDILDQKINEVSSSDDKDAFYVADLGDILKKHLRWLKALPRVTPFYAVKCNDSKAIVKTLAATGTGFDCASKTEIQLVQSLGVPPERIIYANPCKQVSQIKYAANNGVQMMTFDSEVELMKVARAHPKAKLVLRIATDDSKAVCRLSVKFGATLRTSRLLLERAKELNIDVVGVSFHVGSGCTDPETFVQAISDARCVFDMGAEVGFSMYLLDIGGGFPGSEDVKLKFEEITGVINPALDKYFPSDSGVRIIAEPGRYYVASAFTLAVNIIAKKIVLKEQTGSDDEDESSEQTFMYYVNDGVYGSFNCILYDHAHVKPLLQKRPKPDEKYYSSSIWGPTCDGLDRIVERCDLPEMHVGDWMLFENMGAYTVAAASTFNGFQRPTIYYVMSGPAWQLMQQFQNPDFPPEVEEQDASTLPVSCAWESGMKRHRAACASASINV

Structure (SMILES) | Ki [µM]
CC(N)CCON (centres unmarked) [1-Aminooxy-3-aminobutane] | 0.0028
NCCCON [1-Aminooxy-3-aminopropane] | 0.0032
NC1CCC(N)(C(=O)O)CC1 (stereo not drawn) [trans-1,4-diaminocyclohexane-1-carboxylic acid] | 70
NC/C=C/C(N)C(=O)O (stereo not drawn) [trans-3-dehydroornithine] | 4.4
NCCCC(NN)C(=O)O (stereo not drawn) [α-Hydrazinoornithine] | 0.5
C[C@](N)(CCCN)C(=O)O [α-methylornithine] | 40

system: epidermal ornithine decarboxylase activity; assay: not given; conditions: topical application of 20 μmole 2 hr after the TPA treatment; cited from earlier work

Structure (SMILES) | inhibition of the induction of ODC activity [%]
NCCCCCCCN [1,7-diaminoheptane] | 90
NCCCCN [putrescine] | 50
NCCCCNCCCN [spermidine] | 90
NCCCNCCCCNCCCN [spermine] | 90

system: cultured hair follicles; assay: not given; conditions: 50 μM polyamine added to MGBG (10 mM) treated cultured hair follicles; cited from earlier work

Structure (SMILES) | recovery of DNA synthesis
NCCCCNCCCN [spermidine] | Complete recovery of DNA synthesis
NCCCNCCCCNCCCN [spermine] | did not overcome the MGBG-mediated inhibition

system: cell growth in the presence of DFMO; assay: Growth inhibition assay in combination with DFMO; assay type: cell-based; conditions: 144 h; read-out: Ave EC50 Value; note: 0.5 µM SPD
Method: Medias were obtained from Mediatech, Inc. (Hemdon, Va.) and serums from Gibco BRL (Gaithersburg, Md.). 50 U/ml penicillin, 50 μg/ml streptomycin and 2 mM L-glutamine (all from Bio Whittaker, Walkersville, Md.) were included in all cultures. […] When cells were cultured with polyamines or ORI compounds, 1 mM aminoguanidine (AG; Sigma) was included to inhibit serum amine oxidase activity.

Structure (SMILES) | EC50 [µM]
CC(C)CC(C)NCCCCC(N)C(=O)NCCCNCCCCNCCCN (single isomer, unassigned) [VA21] | 0.65
CCCCNCCCC[C@@H](N)C(=O)NCCCNCCCCNCCCN [IVB3] | 2.19
CCCCCCNCCCC[C@@H](N)C(=O)NCCCNCCCCNCCCN [IVB5] | 0.71
CCCCCCCNCCCC[C@@H](N)C(=O)NCCCNCCCCNCCCN [IVB6] | 0.89
CC(C)CCNCCCC[C@@H](N)C(=O)NCCCNCCCCNCCCN [IVB21] | 1.32
CC(C)(C)CCNCCCC[C@@H](N)C(=O)NCCCNCCCCNCCCN [IVB22] | 0.68
CC(C)CNCCCC[C@@H](N)C(=O)NCCCNCCCCNCCCN [IVB23] | 1.79
CC(C)(C)CNCCCC[C@@H](N)C(=O)NCCCNCCCCNCCCN [IVB24] | 1.32
NCCCNCCCCNCCCNC(=O)[C@H](N)CCCCNCC1CC2C=CC1C2 (some centres unmarked) [IVB25] | 0.89
NCCCNCCCCNCCCNC(=O)[C@H](N)CCCCNCC1CCCCC1 [IVB27] | 0.61
CC(C)=CCC[C@H](C)CCNCCCC[C@@H](N)C(=O)NCCCNCCCCNCCCN [IVB28] | 12.8
NCCCNCCCCNCCCNC(=O)[C@H](N)CCCCNCc1ccc(-c2ccccc2)cc1 [IVB33] | 1.38
CCCC(CCC)NCCCC[C@H](N)C(=O)NCCCNCCCCNCCCN [VA26] | 4.14
CC(C)[C@@H]1CC[C@@H](C)CC1NCCCC[C@@H](N)C(=O)NCCCNCCCCNCCCN (some centres unmarked) [VB28] | 1.45

same assay, conditions: 144 h; read-out: Ave EC50 value

Structure (SMILES) | EC50 [µM]
CC(C)CC(C)NCCCCC(N)C(=O)NCCCNCCCCNCCCN (single isomer, unassigned) [VA21] | 0.65
CCCCCCCCCCCCCCCCCC(=O)NCCCC[C@@H](N)C(=O)NCCCNCCCCNCCCN [IB2] | 0.083
CCCCCCCCCCCCCCCC(=O)NCCCC[C@@H](N)C(=O)NCCCNCCCCNCCCN [IB4] | 0.084
CCCCCCCCC(=O)NCCCC[C@@H](N)C(=O)NCCCNCCCCNCCCN [IB6] | 2.2
CCCCCCCC(=O)NCCCC[C@@H](N)C(=O)NCCCNCCCCNCCCN [IB7] | 13
CCCCCCC(=O)NCCCC[C@@H](N)C(=O)NCCCNCCCCNCCCN [IB8] | 3.5
CCCCCC(=O)NCCCC[C@@H](N)C(=O)NCCCNCCCCNCCCN [IB9] | 12
NCCCNCCCCNCCCNC(=O)[C@H](N)CCCCNC(=O)c1ccccc1 [IB24] | 30
NCCCNCCCCNCCCNC(=O)[C@H](N)CCCCNC(=O)c1ccco1 [IB25] | 10
NCCCNCCCCNCCCNC(=O)[C@H](N)CCCCNC(=O)c1ccc(-c2ccccc2)cc1 [IB26] | 1.1
NCCCNCCCCNCCCNC(=O)[C@H](N)CCCCNC(=O)C(c1ccccc1)c1ccccc1 [IB29] | 2.1
NCCCNCCCCNCCCNC(=O)[C@H](N)CCCCNC(=O)C12CC3CC(CC(C3)C1)C2 [IB30] | 2
CC(C)C(=O)NCCCC[C@@H](N)C(=O)NCCCNCCCCNCCCN [IB33] | 8.4
CC(C)(C)C(=O)NCCCC[C@@H](N)C(=O)NCCCNCCCCNCCCN [IB34] | 8.5
CC(C)(C)CC(=O)NCCCC[C@@H](N)C(=O)NCCCNCCCCNCCCN [IB36] | 27
NCCCNCCCCNCCCNC(=O)[C@H](N)CCCCNC(=O)CC1CC2CCC1C2 (some centres unmarked) [IB37] | 41
CC(C)[C@@H]1CC[C@@H](C)C[C@H]1OCC(=O)NCCCC[C@@H](N)C(=O)NCCCNCCCCNCCCN [IB38] | 13

system: levels of spermidine or spermine in rat prostate; assay: not given; conditions: oral, 0.02% or 0.1% in drinking water; cited from earlier work

Structure (SMILES) | levels of spermidine or spermine in rat prostate
NCCCNC1CCCCC1 [APCHA, N-(3-aminopropyl)cyclohexylamine] | significantly reduced levels
CC1CCC(N)CC1 (centres unmarked) [Compound 4MCHA, 4-methylcyclohexylamine] | significantly reduced levels
